Experiments:
POAAN (annual bluegrass) = assay: Pre-plant incorporated (PPI) herbicidal activity, cool season; type: in vivo, Poa annua; details: weed, PPI application
Method: (§1) In another set of tests, the pre-plant incorporated (PPI) activity of compounds of this invention was evaluated on the same species as for the pre-emergence tests described above. In the PPI tests the following procedure, designed to simulate PPI application, was used.
(§2) A pre-prepared topsoil mixture (described above) was placed in a pot and compacted to a depth of 1.0 to 1.25 cm from the top of the pot. Seeds of each of several monocotyledonous and dicotyledonous annual plant species were placed on top of the soil. A sufficient quantity of soil to cover the seeds and level fill the pot was weighed into an open container. A known amount of the test compound was dissolved or suspended in an organic solvent and applied by spraying to this cover soil. The cover soil was thoroughly mixed to distribute the test compound throughout the cover soil, and was then applied as a cover layer over the seeds. Untreated soil was used as a cover layer for control pots. After treatment the plants were placed in a greenhouse where they received 0.64 cm of overhead irrigation. All subsequent watering consisted of a light overhead mist and/or subirrigation as needed for germination and growth. Tables 9 and 10 below relate to warm season plant species which were placed after pre-emergence treatment in a greenhouse with a 30/21° C. day/night temperature regime. Tables 11 and 12 below relates to cool season plant species placed after pre-emergence treatment in a greenhouse or growth chamber with an 18/13° C. day/night temperature regime. Only the compounds of Examples 1, 6, 8, 11, 13 and 15-20 were included in PPI tests.
(§3) Approximately 14 days after planting and treating, the plants were observed and herbicidal efficacy recorded as percent inhibition by comparison with untreated plants.

[1] = test system: PANMI (wild proso millet); assay: Pre-emergence herbicidal activity, warm season; type: in vivo, Panicum miliaceum; details: GR80 = lowest tested rate (300, 100, 30, 10 g/ha) with 80% or greater inhibition; approx. 14 days after treating; 30/21° C.
Outline: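 Read-out: GR80, derived from percent growth inhibition relative to untreated plants at roughly 14 days after planting and treatment. Compounds went onto the surface of freshly seeded soil at 10–300 g/ha. Day/night regimes were 30/21 °C for millet and crabgrass, 18/13 °C for blackgrass and buckwheat.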

rice (ORYSA) = assay: Selectivity test, PPI, warm season crop; type: in vivo, Oryza sativa; details: PPI application
Method: as §2, §3
Additional pre-emergence and PPI tests were conducted by the procedures described above, on warm and cool season weed species in the presence of crop species, to assess herbicidal selectivity. Crop species included in warm season tests were corn (Zea mays, ZEAMX), rice (Oryza sativa, ORYSA) and soybean (Glycine max, GLYMX). Crop species included in cool season tests were wheat (Triticum aestivum, TRZAW), barley (Hordeunm vulgare, HORVX) and oilseed rape (Brassica napus, BRSNS).
Tables 15 and 16 relate to pre-emergence and PPI tests respectively on warm season species. Table 17 relates to pre-emergence tests on cool season species.

AVEFA (wild oat) = assay: Pre-plant incorporated (PPI) herbicidal activity, cool season; type: in vivo, Avena fatua; details: for Percent inhibition AVEFA: weed, PPI application; for PPI activity GR80, AVEFA: pre-plant incorporated, lowest tested rate with 80% or greater inhibition, about 14 days
Method: as §1, §2, §3

SORVU (shattercane) = assay: Pre-emergence herbicidal activity, warm season; type: in vivo, Sorghum vulgare; details: GR80 = lowest tested rate (300, 100, 30, 10 g/ha) with 80% or greater inhibition; approx. 14 days after treating; 30/21° C.
Outline: (§4)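 Activity is expressed as the rate giving 80% inhibition, with 300, 100, 30 and 10 g/ha typically tested. An asterisk marks activity short of 80% at the top rate. Warm-season grasses were held at 30/21 °C; cool-season blackgrass and wild buckwheat at 18/13 °C; scoring at about 14 days.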

SETFA (giant foxtail) = assay: Pre-emergence herbicidal activity, warm season; type: in vivo, Setaria faberi; details: GR80 = lowest tested rate (300, 100, 30, 10 g/ha) with 80% or greater inhibition; approx. 14 days after treating; 30/21° C.
Outline: as §4

ALOMY (blackgrass) = assay: Post-emergence herbicidal activity, cool season; type: in vivo, Alopecurus myosuroides; details: abraded plants sprayed at 300, 100, 30 and 10 g/ha; about 14 days after treatment
Method: In another set of tests, the post-emergence activity of compounds of this invention was evaluated on the cool season species listed above. The following procedure was used.
A pre-prepared topsoil mixture (described above) was placed in a pot and compacted to a depth of 1.0 to 1.25 cm from the top of the pot. Seeds of each of several monocotyledonous and dicotyledonous annual plant species were placed on top of the soil. The seeds were covered with a mixture of 50% topsoil and 50% Rediearth™ in sufficient quantity to level-fill the pots. The pots were then placed on a greenhouse bench and subirrigated as needed.
When plants growing from the seeds had emerged and reached a suitable growth stage for post-emergence treatment, typically 9 to 14 days after planting, above-ground parts of the plants were subjected to a pre-treatment involving abrasion to create greater opportunity for foliar uptake of subsequently applied compounds. Abrasion was performed using garnet 200w particles applied with a Sears Craftsman hand-held sandblaster operated at approximately 850 kPa (50 psig) pressure.
A known amount of each test compound dissolved or suspended in an appropriate organic solvent was diluted with a 50:50 mix of acetone and water and applied to the plants by spraying with a standard spray nozzle in a spray volume of […] at a spray pressure of 511 kPa (30 psig). Only the compounds of Examples 1, 8-15 and 17-22 were included in post-emergence tests. Application rates for these compounds were 300, 100, 30 and 10 g/ha. Control plants were abraded but not sprayed.
After treatment the plants were placed in a greenhouse with an 18/13° C. day/night temperature regime and were subsequently watered as needed for growth. Approximately 14 days after treatment, the plants were observed and herbicidal efficacy recorded as percent inhibition by comparison with control plants. GR80 values were assigned for each compound as described above for the pre-emergence tests.

| Compound | Percent inhibition POAAN (POAAN (annual bluegrass); 30 g/ha) | Percent inhibition POAAN (POAAN (annual bluegrass); 100 g/ha) | Percent inhibition POAAN (POAAN (annual bluegrass); 300 g/ha) | Percent inhibition POAAN (POAAN (annual bluegrass); 900 g/ha) | Pre-emergence activity (GR80) PANMI [1] | Percent inhibition ORYSA (rice (ORYSA); 30 g/ha) | Percent inhibition ORYSA (rice (ORYSA); 100 g/ha) | Percent inhibition ORYSA (rice (ORYSA); 300 g/ha) | Percent inhibition ORYSA (rice (ORYSA); 900 g/ha) | Percent inhibition AVEFA (AVEFA (wild oat); 30 g/ha) | Percent inhibition AVEFA (AVEFA (wild oat); 100 g/ha) | Percent inhibition AVEFA (AVEFA (wild oat); 300 g/ha) | Percent inhibition AVEFA (AVEFA (wild oat); 900 g/ha) | Pre-emergence activity (GR80) SORVU (SORVU (shattercane)) | Pre-emergence activity (GR80) SETFA (SETFA (giant foxtail)) | PPI activity GR80, AVEFA (AVEFA (wild oat)) | Percent inhibition POAAN (POAAN (annual bluegrass); 10 g/ha) | Percent inhibition ORYSA (rice (ORYSA); 10 g/ha) | Percent inhibition AVEFA (AVEFA (wild oat); 10 g/ha) | Post-emergence activity GR80, ALOMY (ALOMY (blackgrass)) |
| --- | --- | --- | --- | --- | --- | --- | --- | --- | --- | --- | --- | --- | --- | --- | --- | --- | --- | --- | --- | --- |
| CCN(CC)C(=O)n1cnc(S(=O)(=O)C(F)(F)F)n1 [Example 2] | 80% | 100% | 100% | 100% | 30 g/ha | 0% | 0% | 0% | 30% | 0% | 10% | 20% | 50% | 300 g/ha | 100 g/ha |  |  |  |  |  |
| CCN(CC)C(=O)n1cnc(S(=O)(=O)C(F)(F)Cl)n1 [Example 3] | 70% | 100% | 100% | 100% | 30 g/ha | 0% | 0% | 20% | 70% | 20% | 40% | 100% | 80% | 100 g/ha | 100 g/ha |  |  |  |  |  |
| CCN(CC)C(=O)n1cnc(S(=O)(=O)C(F)(F)C(F)(F)Br)n1 [Example 4] | 95% | 75% | 100% | 100% | 100 g/ha | 0% | 0% | 0% | 20% | 10% | 10% | 50% | 100% | * (activity observed, at least at highest rate, but <80% inhibition) | 30 g/ha |  |  |  |  |  |
| CCN(CC)C(=O)n1cnc(S(=O)(=O)C(F)(F)C(=O)c2ccccc2)n1 [Example 6] |  |  |  |  | 300 g/ha |  |  |  |  |  |  |  |  | * (activity observed, at least at highest rate, but <80% inhibition) | * (activity observed, at least at highest rate, but <80% inhibition) | 300 g/ha |  |  |  |  |
| CCN(CC)C(=O)n1cnc(S(=O)(=O)C(F)(F)SCc2ccccc2)n1 [Example 10] | 10% | 95% | 100% | 100% | 300 g/ha | 0% | 0% | 30% | 0% | 0% | 20% | 40% | 95% |  | 100 g/ha |  | 0% | 0% | 0% | [empty] |
| CCN(CC)C(=O)n1cnc(S(=O)(=O)C(F)(F)SCC(=O)OC)n1 [Example 11] | 0% | 0% | 0% | 70% | 300 g/ha | 0% | 0% | 40% | 40% | 0% | 0% | 0% | 60% | * (activity observed, at least at highest rate, but <80% inhibition) |  | [empty] | 0% | 0% | 0% | [empty] |
| CCN(CC)C(=O)n1cnc(S(=O)(=O)C(F)(F)C(F)(F)SC)n1 [Example 14] |  |  |  |  | 100 g/ha |  |  |  |  |  |  |  |  | * (activity observed, at least at highest rate, but <80% inhibition) | 100 g/ha |  |  |  |  | [empty] |
| CCN(CC)C(=O)n1cnc(S(=O)(=O)C(F)(F)C(F)F)n1 [Example 16] | 50% | 65% | 100% | 100% | 30 g/ha | 0% | 30% | 90% | 100% | 0% | 0% | 80% | 90% | 100 g/ha | 30 g/ha | 300 g/ha | 20% | 0% | 0% |  |

— patent publication US6461997B1, “Triazole sulfones having herbicidal activity” (Monsanto Technology LLC, priority 1999, dated 2002)
